# Reference: patent publication US20080171779A1, “USE OF 5-HT6 ANTAGONISTS TO PREVENT RELAPSE INTO ADDICTION” (Solvay Pharmaceuticals B.V., priority 2007, published 2008)
# Key:
# [1] = test system: cue-induced relapse of alcohol seeking in the rat; experiment: Stimulus (cue) induced reinstatement of extinguished self-administration of alcohol; type: in vivo; details: 20 mg/kg
# [2] = test system: cue-induced relapse of alcohol seeking in the rat; experiment: as above; type: in vivo; details: for Nose-pokes after an alcohol induced cue, former alcoholics / Nose-pokes after an alcohol induced cue, total abstainers: 45 min test, mean ± spread; for amount of active nose-pokes versus placebo, cue induced alcohol seeking: one-way ANOVA, Fisher's LSD; for inactive nose-pokes versus placebo, cue induced alcohol seeking: all tested dosages
# Protocol: After learning to consume alcohol 12% (v/v) in a two-bottle paradigm, rats were trained to self-administer alcohol in the operant cage. When response-rates were stable, animals were withdrawn from alcohol for three weeks. Subsequently, the effect of 5-HT6 antagonists on relapse was tested by re-exposing the animals to alcohol-related stimuli.
# (§1) Animals: 64 male Wistar rats, weighing 280-300 g at arrival (Harlan, the Netherlands) were used for testing compound 33. The animals were housed individually in a temperature—(T=22±2° C.) and humidity (rel %=60±5%) controlled room on a reversed 12 h light-dark cycle (lights off at 7:00 AM) with water available ad libitum. The animals were on a diet of 18 gr chow per animal per day. The experiment started after one week of acclimatization and lasted 12-14 weeks.
# Drug Self-administration: All training and testing was conducted in 16 operant chambers (30.5×24.1×29.2 cm) surrounded by sound attenuating ventilated cubicles (Med Associates, Georgia, Vt.). The chambers were fitted with a grid floor, a red dim house light and opposite the house light an intelligence panel. In the intelligence panel there were two nose-poke holes (Ø2.5 cm) located 5.5 cm above the grid floor and 16 cm separated from each other. A red dim stimulus light was located 12 cm above both nose-poke holes. Between the two nose-poke holes, a receptacle was located, in which the alcohol was delivered. High above the receptacle was a sonalert tone module. […] The alcohol drop was delivered by an infusion pump (PHM-100, MedAssociates, Georgia, Vt.) in 4.2 seconds During alcohol delivery, the active nose-poke hole was illuminated and a tone (±65 dB) was presented by the sonalert tone module for 2 seconds. The receptacle was illuminated for 5 seconds (discrete cues). The stimulus light switched off for 15 seconds (discriminative cue). In this 15 second time-out period, nose-poking was without consequences.
# Animals were selected for further testing if they consumed alcohol doses (in the FR4-schedule) above the literature described pharmacological effective dose of 0.3 g/kg/hr (Linseman, 1987). Subsequently, when response behavior on the FR4-schedule was stable, there was a 3 week period of withdrawal in the homecage.
# Test for reinstatement: After the withdrawal period, each animal was tested twice for cue induced reinstatement with a week of further extinction training and wash-out in between. Animals were randomly distributed over the different experimental groups and never received the same treatment twice. On test days, the animals were placed in the operant cage for three or four hours (test day 1: 4 hr; test day 2: 3 hr) in absence of alcohol and alcohol related stimuli (discrete and discriminative cues) to extinguish response behavior. One hour before the end of this extinction session, the animal was removed from the operant cage and treated with a 5-HT6 antagonist. After drug administration the animals was placed back into the operant chamber, where the session continued. When the last hour had passed, the cue-induced relapse test session started (duration: 45 min). During this test, the experimental conditions were similar to the conditions during training on an FR4-schedule, with the exceptions that 1) at the beginning of the session, a 12% alcohol drop of 0.20 ml was available (delivered in the receptacle by the experimenter at the begin of the test session) and 2) after every 4th response, only cues were presented (no alcohol was delivered). Tests were operated and raw data was saved by the MED-PC IV program (Tatham, 1989).
# Drugs: Alcohol 12% (v/v) was made from alcohol 96% and diluted with tap water. Compound 33 was suspended in 5% Tween 80, 0.25% methylcellulose, 5% PEG 400 and H2O HPLC (65% of end volume). Ethanol was added and evaporated under N2-gas. The pH was adjusted to 5.8. In the range: 0, 3,10, and 30 mg/kg, compound 33 was administered intraperitoneally, 15 minutes before testing. The injection volume was 2 ml/kg. […]
# [3] = test system: relapse behavior induced by conditioned drug cues (cocaine, heroin, nicotine, alcohol); details: cues previously associated with cocaine, nicotine and alcohol delivery; cited from earlier work
# [4] = test system: cue-induced relapse of nicotine seeking in the rat; experiment: Stimulus (cue) induced reinstatement of extinguished self-administration of nicotine; type: in vivo; details: for Nose-pokes after a nicotine induced cue, total abstainers / Nose-pokes after a nicotine induced cue, former nicotine addicts: 30 min test, mean ± spread; for Nose-pokes after a nicotine induced cue, former nicotine addicts: column 'former nicotine addicts'
# Description: Using a very similar test protocol, 5-HT6 antagonists were also found to suppress cue-induced nicotine-seeking behavior. Thus 5-HT6 antagonists are believed useful for the preparation of medicaments for preventing relapse into addiction, in particular relapse into addiction to substances of abuse, including opiates, hallucinogens, inhalants, phencyclidine, amphetamines, cocaine, cannabis, nicotine, and alcohol, medicaments for preventing relapse to addiction to certain medicines, including sedatives, hypnotics and anxiolytics, and medicaments for preventing relapse to certain addictive behaviors, including gambling.
# as §1, with “32” for “64”, “water and food” for “water”, “libitum.” for “libitum. The animals were on a diet of 18 gr chow per animal per day.”
# Surgery: after a week of acclimatization, intravenous silicon catheters are implanted in the right jugular vein under isoflurane anesthesia as described previously in De Vries, 1999.
# Drug Self-administration: All training and testing was conducted in 16 operant chambers (30.5×24.1×29.2 cm) surrounded by sound attenuating ventilated cubicles (Med Associates, Georgia, Vt.). The chambers were fitted with a grid floor, a red dim house light and opposite the house light an intelligence panel. In the intelligence panel there were two nose-poke holes (Ø2.5 cm) located 5.5 cm above the grid floor and 16 cm separated from each other. A red dim stimulus light was located 12 cm above both nose-poke holes. A tone module was located at the top of the center of the intelligence panel. During self-administration, animals were connected to an infusion pump (PHM-100, Med Associates, Georgia, V.T.) by a swivel to receive intravenous infusions of nicotine (40 μg/kg/inf). […] During this infusion, the active nose poke hole was illuminated (yellow light) and an audio stimulus was presented (tone of 2900 Hz and 65 dB for 2 seconds) (discrete cues). From the moment of nicotine delivery, the stimulus light switched off for 15 seconds (discriminative cue). In this time-out period, nose poking was without consequences.
# Acquisition, withdrawal and reinstatement: Behavioral training started 5-7 days after surgery. […] When response behavior was stable, animals were selected for further testing if they earned at least 5 rewards during the last three sessions of the FR3 schedule and the reward delivery was equal distributed over the session. Subsequently, responding for nicotine was extinguished. In this extinction phase (11 daily sessions of 60 min), the animals were placed in the operant chambers, but the nicotine and nicotine related stimuli (discrete and discriminative cues) were not available. Finally, the animals were tested for cue-induced reinstatement. During this test (duration of 30 minutes), the experimental conditions were similar to the conditions during training on an FR3-schedule, with the exception that no nicotine was available and the animals were not connected to the swivel.
# Tests for cue-induced reinstatement were conducted twice; between these two test days, there was a week of further extinction training (wash-out period). During cue-induced reinstatement, effects of 5-HT6 antagonists were studied on output measurements.
# Drugs: Nicotine for self-administration: (−) nicotine hydrogen tartrate salt (Sigma, St Louis, Mo.) was dissolved in sterile saline. The pH of the solution was adjusted to +/−7.4 with diluted NaOH. Nicotine dose was expressed as free base weight. Compound 33 was suspended in 5% of end volume Tween 80. Ethanol was added and evaporated under N2-gas for 30 minutes. […] After the pH was adjusted to 5.5, 10% of end volume H2O HPLC was added. […]
compound,measurement,setting,value
"COc1ccc(NS(=O)(=O)c2sc3ccc(Cl)cc3c2C)cc1N1CCNCC1.Cl [SB-271046, reference compound]",relapse into addiction (alcohol),[1],prevented from relapse into addiction
same,"Nose-pokes after an alcohol induced cue, total abstainers","[1]; 'total abstainers', 45 min test, mean ± spread",2.7 ± 1.9
same,"amount of active nose-pokes versus placebo, cue induced alcohol seeking","[1]; one-way ANOVA, Fisher's LSD, p<0.005",significantly lower
same,"Nose-pokes after an alcohol induced cue, former alcoholics",[2]; 3 mg/kg,11.9 ± 5.4
same,"Nose-pokes after an alcohol induced cue, total abstainers",[2]; 3 mg/kg,1.1 ± 0.5
same,"Nose-pokes after an alcohol induced cue, total abstainers",[2]; 10 mg/kg,0.9 ± 0.5
same,"amount of active nose-pokes versus placebo, cue induced alcohol seeking","[2]; 10 mg/kg, p<0.05",significantly lower
same,"inactive nose-pokes versus placebo, cue induced alcohol seeking",[2],no significant difference
Cc1c(C(=O)NN2CCCCC2)nn(-c2ccc(Cl)cc2Cl)c1-c1ccc(Cl)cc1 [SR141716A],relapse behavior induced by conditioned drug cues,[3],able to selectively reduce relapse behavior
CCN/C(=N\S(=O)(=O)c1cccc(Cl)c1)N1CC(C)(C)C=N1 [compound 33],"Nose-pokes after a nicotine induced cue, total abstainers",[4]; 3 mg/kg intraperitoneally,4.58 ± 1.17
same,"Nose-pokes after a nicotine induced cue, former nicotine addicts",[4]; 3 mg/kg intraperitoneally,24.83 ± 3.20
same,"Nose-pokes after a nicotine induced cue, total abstainers",[4]; 10 mg/kg intraperitoneally,3.00 ± 1.04
same,"Nose-pokes after a nicotine induced cue, former nicotine addicts",[4]; 10 mg/kg intraperitoneally,28.50 ± 7.40
same,relapse into addiction (nicotine),[4]; 30 mg/kg,prevented from relapse into addiction
same,"Nose-pokes after a nicotine induced cue, total abstainers",[4]; 30 mg/kg intraperitoneally,1.75 ± 0.74
same,"amount of active nose-pokes versus placebo, cue induced nicotine seeking","[4]; 30 mg/kg, one-way ANOVA, Fisher's LSD, p<0.05",significantly lower
same,"inactive nose-pokes versus placebo, cue induced nicotine seeking",[4]; all tested dosages,no significant difference
same,"Nose-pokes after an alcohol induced cue, former alcoholics",[2]; 3 mg/kg,27.0 ± 6.1
same,"Nose-pokes after an alcohol induced cue, total abstainers",[2]; 3 mg/kg,1.1 ± 0.2
same,"Nose-pokes after an alcohol induced cue, former alcoholics",[2]; 10 mg/kg,23.5 ± 4.2
same,"Nose-pokes after an alcohol induced cue, total abstainers",[2]; 10 mg/kg,2.2 ± 1.5
same,relapse into addiction (alcohol),[2]; 30 mg/kg,prevented from relapse into addiction
same,"Nose-pokes after an alcohol induced cue, total abstainers",[2]; 30 mg/kg,0.8 ± 0.1
same,"amount of active nose-pokes versus placebo, cue induced alcohol seeking","[2]; 30 mg/kg, p<0.005",significantly lower
same,"inactive nose-pokes versus placebo, cue induced alcohol seeking",[2],no significant difference
